From patent US10604554B2, “Double-acylated GLP-1 derivatives” (Novo Nordisk A/S, priority 2012, dated 2020)
Like-named read-outs stand apart in the source and are kept apart here.

Key:
[1] = biological target: T1, human GLP-1 receptor (Homo sapiens, UniProt P43220); assay: In vitro potency (CRE luciferase; whole cells); assay type: cell-based; set-up: EC50/pM (ratio 1% HSA/0% HSA): unit not given here; conditions: for EC50: BHK cells; for EC50/pM (ratio 1% HSA/0% HSA): ratio of EC50 at 1% HSA to EC50 at 0% HSA
T1 construct: expressed in transfected cells; host or cells: BHK cells, clone FCW467-12A/KZ10-1 (parent line BHKTS13), further transfected with CRE luciferase
T1 sequence (P43220 24-463): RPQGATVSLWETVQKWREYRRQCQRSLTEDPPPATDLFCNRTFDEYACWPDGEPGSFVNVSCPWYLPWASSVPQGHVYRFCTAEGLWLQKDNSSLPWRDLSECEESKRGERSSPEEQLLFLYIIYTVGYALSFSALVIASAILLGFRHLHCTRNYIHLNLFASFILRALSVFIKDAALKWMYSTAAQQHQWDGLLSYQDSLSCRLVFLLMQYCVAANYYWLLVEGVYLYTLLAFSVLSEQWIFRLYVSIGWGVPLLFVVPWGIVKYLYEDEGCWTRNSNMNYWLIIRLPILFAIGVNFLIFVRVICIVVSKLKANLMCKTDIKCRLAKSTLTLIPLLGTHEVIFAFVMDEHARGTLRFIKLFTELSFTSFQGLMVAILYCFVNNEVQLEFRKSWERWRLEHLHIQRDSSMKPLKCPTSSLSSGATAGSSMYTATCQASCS
Outline: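 Reporter: CRE-luciferase in BHK cells stably expressing human GLP-1R, 5×10^3 cells/well; compounds tested in buffer containing 0% or 1% HSA.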

[2] = biological target: T1, human GLP-1 receptor; assay: GLP-1 receptor binding (SPA, displacement of 125I-GLP-1); conditions: for IC50: 0.001% HSA (low albumin), read-out: Receptor binding affinity IC50 (low HSA); for IC50 (high HSA): Receptor binding affinity IC50 (high HSA), 2.0% HSA (high albumin), heading: Receptor binding affinity IC50
Outline: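 Tracer [125I]-GLP-1(7-36)NH2 at 0.06 nM final competed on hamster stably transfected cell membranes captured by WGA SPA beads; 120 min, 30 °C, scintillation count.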

[3] = in vivo; conditions: male, Göttingen, minipig, iv
Procedure: The purpose of this study is to determine the protraction in vivo of the GLP-1 derivatives after i.v. administration to minipigs, i.e. the prolongation of their time of action. This is done in a pharmacokinetic (PK) study, where the terminal half-life of the derivative in question is determined. By terminal half-life is generally meant the period of time it takes to halve a certain plasma concentration, measured after the initial distribution phase.
Study A: Male Göttingen minipigs were obtained from Ellegaard Göttingen Minipigs (Dalmose, Denmark) approximately 7-14 months of age and weighing from approximately 16-35 kg were used in the studies. The minipigs were housed individually and fed restrictedly once or twice daily with SDS minipig diet (Special Diets Services, Essex, UK). After at least 2 weeks of acclimatisation two permanent central venous catheters were implanted in vena cava caudalis or cranialis in each animal. The animals were allowed 1 week recovery after the surgery, and were then used for repeated pharmacokinetic studies with a suitable wash-out period between successive GLP-1 derivative dosings.
The animals were fasted for approximately 18 h before dosing and from 0 to 4 h after dosing, but had ad libitum access to water during the whole period.
The GLP-1 derivatives were dissolved in 50 mM sodium phosphate, 145 mM sodium chloride, 0.05% tween 80, pH 7.4 to a concentration of usually from 20-60 nmol/ml. […] Blood samples (for example 0.8 ml) were collected in EDTA buffer (8 mM) and then centrifuged at 4° C. and 1942 G for 10 minutes.
Study B: Male Göttingen minipigs were obtained from Ellegaard Göttingen Minipigs (Dalmose, Denmark) approximately 5 months of age and weighing from approximately 9 kg were used in the studies. The minipigs were housed in pens with straw as bedding, six together in each pen and fed restrictedly once or twice daily with Altromin 9023 minipig diet (Chr. Petersen A/S, DK-4100 Ringsted) or Standard SMP(E) minipig diet (Special Diet Services (SDS), UK). The pigs were used for repeated pharmacokinetic studies with a suitable wash-out period between successive GLP-1 derivative dosings.
The GLP-1 derivatives were dissolved in 50 mM sodium phosphate, 145 mM sodium chloride, 0.05% tween 80, pH 7.4 to a concentration of usually from 20-60 nmol/ml. Intravenous injections (the volume corresponding to usually 2 nmol/kg, for example 0.1 ml/kg) of the compounds were given as intravenous injections via a Venflon inserted in an ear vein, while they are placed unanaesthetised in a sling. The dose volume was 0.1 ml/kg, and blood was sampled at predefined time points for up till 17 days post dosing (samples was taken with syringe from a jugular vein).
Individual plasma concentration-time profiles were analyzed by a non-compartmental model in Phoenix WinNonLin ver. […] (Pharsight Inc., Mountain View, Calif., USA), and the resulting terminal half-lives (harmonic mean) determined.

[4] = 0% HSA, read-out: In vitro potency (CRE luciferase) EC50 (0% HSA)
[5] = In vitro potency (CRE luciferase) EC50 (1% HSA), 1% HSA

EC50 [1, 4]	EC50 [1, 5]	EC50/pM (ratio 1% HSA/0% HSA) [1]	IC50 [2]	IC50 (high HSA) [2]	half-life [3]	Compound
2.2 pM	1380 pM	659	760 pM	545000 pM	93 h	CC[C@H](C)[C@H](NC(=O)[C@H](Cc1ccccc1)NC(=O)[C@H](CCC(=O)O)NC(=O)[C@H](CCCCNC(=O)[C@@H](N)CCCCNC(=O)CC[C@H](NC(=O)CC[C@H](NC(=O)CC[C@H](NC(=O)CCCCCCCCCCCCCCC(=O)O)C(=O)O)C(=O)O)C(=O)O)NC(=O)[C@H](C)NC(=O)[C@H](C)NC(=O)[C@H](CCC(N)=O)NC(=O)CNC(=O)[C@H](CCC(=O)O)NC(=O)[C@H](CC(C)C)NC(=O)[C@H](Cc1ccc(O)cc1)NC(=O)[C@H](CO)NC(=O)[C@H](CO)NC(=O)[C@@H](NC(=O)[C@H](CC(=O)O)NC(=O)[C@H](CO)NC(=O)[C@@H](NC(=O)[C@H](Cc1ccccc1)NC(=O)[C@@H](NC(=O)CNC(=O)[C@H](CCC(=O)O)NC(=O)C(C)(C)NC(=O)[C@@H](N)Cc1c[nH]cn1)[C@@H](C)O)[C@@H](C)O)C(C)C)C(=O)N[C@@H](C)C(=O)N[C@@H](Cc1c[nH]c2ccccc12)C(=O)N[C@@H](CC(C)C)C(=O)N[C@H](C(=O)N[C@@H](CCCNC(=N)N)C(=O)NCC(=O)N[C@@H](CCCNC(=N)N)C(=O)N[C@@H](CCCCNC(=O)[C@@H](N)CCCCNC(=O)CC[C@H](NC(=O)CC[C@H](NC(=O)CC[C@H](NC(=O)CCCCCCCCCCCCCCC(=O)O)C(=O)O)C(=O)O)C(=O)O)C(=O)O)C(C)C [Example 13, N^ε26-[(2S)-2-amino-6-[[(4S)-4-carboxy-4-[[(4S)-4-carboxy-4-[[(4S)-4-carboxy-4-(15-carboxypentadecanoylamino)butanoyl]amino]butanoyl]amino]butanoyl]amino]hexanoyl], N^ε37-[(2S)-2-amino-6-[[(4S)-4-carboxy-4-[[(4S)-4-carboxy-4-[[(4S)-4-carboxy-4-(15-carboxypentadecanoylamino)butanoyl]amino]butanoyl]amino]butanoyl]amino]hexanoyl]-[Aib^8,Arg^34,Lys^37]-GLP-1-(7-37)-peptide]
25 pM	51 pM	2.5	770 pM	147000 pM	56 h	CC[C@H](C)[C@H](NC(=O)[C@H](Cc1ccccc1)NC(=O)[C@H](CCC(=O)O)NC(=O)[C@H](CCCCNC(=O)[C@@H](N)CCCCNC(=O)COCCOCCNC(=O)COCCOCCNC(=O)CC[C@H](NC(=O)CCCCCCCCCCCCC(=O)O)C(=O)O)NC(=O)[C@H](C)NC(=O)[C@H](C)NC(=O)[C@H](CCC(N)=O)NC(=O)CNC(=O)[C@H](CCC(=O)O)NC(=O)[C@H](CC(C)C)NC(=O)[C@H](Cc1ccc(O)cc1)NC(=O)[C@H](CO)NC(=O)[C@H](CO)NC(=O)[C@@H](NC(=O)[C@H](CC(=O)O)NC(=O)[C@H](CO)NC(=O)[C@@H](NC(=O)[C@H](Cc1ccccc1)NC(=O)[C@@H](NC(=O)CNC(=O)[C@H](CCC(=O)O)NC(=O)C(C)(C)NC(=O)[C@@H](N)Cc1c[nH]cn1)[C@@H](C)O)[C@@H](C)O)C(C)C)C(=O)N[C@@H](C)C(=O)N[C@@H](Cc1c[nH]c2ccccc12)C(=O)N[C@@H](CC(C)C)C(=O)N[C@H](C(=O)N[C@@H](CCCNC(=N)N)C(=O)NCC(=O)N[C@@H](CCCNC(=N)N)C(=O)N[C@@H](CCCCNC(=O)[C@@H](N)CCCCNC(=O)COCCOCCNC(=O)COCCOCCNC(=O)CC[C@H](NC(=O)CCCCCCCCCCCCC(=O)O)C(=O)O)C(=O)O)C(C)C [Example 19, N^ε26-[(2S)-2-amino-6-[[2-[2-[2-[[2-[2-[2-[[(4S)-4-carboxy-4-(13-carboxytridecanoylamino)butanoyl]amino]ethoxy]ethoxy]acetyl]amino]ethoxy]ethoxy]acetyl]amino]hexanoyl], N^ε37-[(2S)-2-amino-6-[[2-[2-[2-[[2-[2-[2-[[(4S)-4-carboxy-4-(13-carboxytridecanoylamino)butanoyl]amino]ethoxy]ethoxy]acetyl]amino]ethoxy]ethoxy]acetyl]amino]hexanoyl]-[Aib^8,Arg^34,Lys^37]-GLP-1-(7-37)-peptide]
